Test results as given in US20260184675A1, “CHIRAL ISOMERIC SULFITE COMPOUND AND APPLICATION THEREOF” (Chengdu Hanova BioSciences Co., Ltd, priority 2024, published 2026).

What was measured:
[1] = test system: eggs of Harmonia axyridis; assay: Effect on hatching of eggs of Harmonia axyridis, egg card immersion; format: in vivo; conditions: 100 ppm; for Number of hatched larvae 4 days after insecticide delivery, Replicate 1 / Number of hatched larvae 4 days after insecticide delivery, Replicate 2 / Number of hatched larvae 4 days after insecticide delivery, Replicate 3: Harmonia axyridis egg cards, immersed 30 seconds; for Hatching rate (%), Replicate 1 / Hatching rate (%), Replicate 2 / Hatching rate (%), Replicate 3: Harmonia axyridis eggs, 4 days after delivery
Text: The eggs of Harmonia axyridis cards (with approximately 20 eggs per card) were purchased from Henan Jiyuan Baiyun Industry Co., Ltd. in Henan Province. The number of eggs on the egg cards was counted as the basic number before insecticide delivery, and 5 cards were used as one treatment, with 3 replicates per treatment. After immersing the egg cards in a 100 ppm insecticide solution for 30 seconds, they were taken out and air dried, then cultivated under moisturizing conditions, and the […] were cultivated at 27° C. 4 days after insecticide delivery, the hatching status of eggs of Harmonia axyridis was investigated, and the prevention and control effect was calculated according to the following formula. [formula] [formula]

[2] = test system: eggs of Aleyrodidae; assay: Effect on hatching of eggs of Aleyrodidae, leaf disc method; format: in vivo; conditions: 10 ppm; for Hatching rate (%), Replicate 1 / Hatching rate (%), Replicate 2 / Hatching rate (%), Replicate 3 / Number of hatched larvae 5 days after insecticide delivery, Replicate 1 / Number of hatched larvae 5 days after insecticide delivery, Replicate 2 / Number of hatched larvae 5 days after insecticide delivery, Replicate 3: Aleyrodidae eggs; for Hatching rate (%), Replicate 1 / Hatching rate (%), Replicate 2 / Hatching rate (%), Replicate 3: 5 days after delivery; for Number of hatched larvae 5 days after insecticide delivery, Replicate 1 / Number of hatched larvae 5 days after insecticide delivery, Replicate 2 / Number of hatched larvae 5 days after insecticide delivery, Replicate 3: leaf disc
Experimental: (§1) • (1) Preparation of leaf discs containing eggs: 20 female adult mites of Tetranychus cinnabarinus were transferred onto leaf discs of Vicia faba with a diameter of 2.0 cm (with wetted filter paper at the bottom), then covered it with a lidded culture dish and cultivated under moisturizing conditions, the adult mites were removed within 36 hours and microscopic examination and counting were performed on leaf discs containing eggs. • (2) Investigation of egg population base: Before pesticide soaking, a microscopic examination was conducted on the egg basic number of each leaf disc, with 2 replicates set for each treatment. • (3) Pesticide soaking treatment: The leaf butterflies loaded with mite eggs were soaked in clear water and sulfite compounds for 10 seconds, respectively, then taken out and cultivated under moisturizing conditions. Each treatment should be repeated for no less than 3 times. • (4) Cultivation and observation: The […] were cultivated under normal conditions. Five days after insecticide delivery, the hatching status of mite eggs was investigated. • Note: The temperature and humidity conditions of the constant temperature and humidity incubator after the treatment should be controlled so as to avoid excessive temperature differences, which may cause generation and dripping of condensate water in the culture dish, resulting in abnormal death of eggs due to soaking in water; it is also necessary to ensure sufficient strong ambient light, without directing irradiating the leaves. • (5) Survey of Results: The experimental materials of each treatment group were regularly hydrated and moisturized, and the hatching of eggs was observed. On the 7th day after insecticide delivery, the number of hatched eggs for each treatment was recorded, and the survey of results was recorded in the original notebook. According to the experimental requirements and characteristics of agents, the survey time can be shortened or extended.
(§2) • 1) Surveying and recording the number of hatched eggs for each treatment. • 2) Photographing and recording whether there was any pesticide damage to the leaf discs of Vicia faba. • 3) Recording the developmental status of experimental mite eggs, behavior status of nymph mites, including abnormal phenomena such as delayed or stopped development of mite eggs, difficulty in breaking hull for nymph mites, or painful struggles after hatching, etc. • (6) Calculation method: Based on the survey data, the prevention and control effect of each treatment was calculated according to the following formula, and the calculation results were kept to two decimal places.
(§3) This test adopted the method in Test Example 1 of technical section, mainly used leaf disc method to explore the inhibitory effect on hatching of eggs of Aleyrodidae by compounds 1-(S,S), 1-(S,R), 1-(R,R), 1-(R,S), 1′-(S,S), 1′-(S,R), 1′-(R,R), 1′-(R,S), compound 1, compound 1′, S-10, R-10, S-10′, R-10′, compound 10, compound 10′, compound 19-(S,S), 19-(S,R), 19-(R,R), 19-(R,S), 19′-(S,S), 19′-(S,R), 19′-(R,R), 19′-(R,S), compound 19, and compound 19′. The concentration of all compounds was 10 ppm.

[3] = test system: eggs of Tetranychus urticae; assay: Effect on hatching of eggs of Tetranychus urticae, leaf disc method; format: in vivo; conditions: 5 ppm; for Hatching rate (%): 5 days after insecticide delivery
Experimental: as §1, §2
as §3, with “of Tetranychus urticae” for “of Aleyrodidae”, “was 5” for “was 10”

[4] = test system: eggs of Thrips; assay: Effect on hatching of eggs of Thrips, leaf disc method; format: in vivo; conditions: 100 ppm; for Hatching rate (%): 5 days after insecticide delivery
Experimental: as §1, §2
as §3, with “of Thrips” for “of Aleyrodidae”, “by” for “by compounds”, “was 100” for “was 10”

[5] = test system: Magnaporthe grisea; format: cell-based; conditions: 100 ppm; for Average antifungal rate (%) / Antifungal rate of Magnaporthe grisea (%), Replicate 1 / Antifungal rate of Magnaporthe grisea (%), Replicate 2 / Antifungal rate of Magnaporthe grisea (%), Replicate 3: 96-well plate; for Average antifungal rate (%): average of 3 replicates
[6] = Replicate 1, listed as 1′-(S, S)
[7] = Replicate 2, listed as 1′-(S, S)
[8] = Replicate 3, listed as 1′-(S, S)

## CCC(COS(=O)OCCF)Oc1ccc(Cl)cc1Cl (centres unmarked) [Compound 19′]
[1]
  inhibitory activity on the hatching of eggs of Harmonia axyridis (in words): strong inhibitory activities
  Number of hatched larvae 4 days after insecticide delivery, Replicate 1: 4
  Number of hatched larvae 4 days after insecticide delivery, Replicate 2: 5
  Number of hatched larvae 4 days after insecticide delivery, Replicate 3: 7
  Hatching rate (%), Replicate 1: 4.49%
  Hatching rate (%), Replicate 2: 5.21%
  Hatching rate (%), Replicate 3: 6.48%
[2]
  inhibitory activity on the hatching of eggs of Aleyrodidae (in words): strong inhibitory activities
  Hatching rate (%), Replicate 1: 0.00%
  Hatching rate (%), Replicate 2: 0.00%
  Hatching rate (%), Replicate 3: 0.00%
  Number of hatched larvae 5 days after insecticide delivery, Replicate 1: 0
  Number of hatched larvae 5 days after insecticide delivery, Replicate 2: 0
  Number of hatched larvae 5 days after insecticide delivery, Replicate 3: 0
[3]
  inhibitory activity on the hatching of eggs of Tetranychus urticae (in words): strong inhibitory activities
[3]; Replicate 1
  Hatching rate (%): 1.14%
  Number of hatched larvae 5 days after insecticide delivery: 1
[3]; Replicate 2
  Hatching rate (%): 1.92%
  Number of hatched larvae 5 days after insecticide delivery: 2
[4]
  inhibitory activity on the hatching of eggs of Thrips (in words): strong inhibitory activities
[4]; Replicate 1
  Hatching rate (%): 0.95%
  Number of hatched larvae 5 days after insecticide delivery: 1
[4]; Replicate 2
  Hatching rate (%): 1.15%
  Number of hatched larvae 5 days after insecticide delivery: 1
[4]; Replicate 3
  Hatching rate (%): 0.00%
  Number of hatched larvae 5 days after insecticide delivery: 0
[5]
  inhibitory rate against Magnaporthe grisea (in words): strong inhibitory rate
  Average antifungal rate (%): 92.59%
  Antifungal rate of Magnaporthe grisea (%), Replicate 1: 91.33%
  Antifungal rate of Magnaporthe grisea (%), Replicate 2: 93.48%
  Antifungal rate of Magnaporthe grisea (%), Replicate 3: 92.95%

## CC(COc1ccc(Cl)cc1Cl)OS(=O)OCCF [1′-(S,S)]
[1]; listed as 1′-(S, S)
  Number of hatched larvae 4 days after insecticide delivery, Replicate 1: 18
  Number of hatched larvae 4 days after insecticide delivery, Replicate 2: 19
  Number of hatched larvae 4 days after insecticide delivery, Replicate 3: 21
  Hatching rate (%), Replicate 1: 19.57%
  Hatching rate (%), Replicate 2: 19.39%
  Hatching rate (%), Replicate 3: 18.69%
[2]; listed as 1′-(S, S)
  Hatching rate (%), Replicate 1: 15.15%
  Hatching rate (%), Replicate 2: 16.19%
  Hatching rate (%), Replicate 3: 15.38%
  Number of hatched larvae 5 days after insecticide delivery, Replicate 1: 20
  Number of hatched larvae 5 days after insecticide delivery, Replicate 2: 17
  Number of hatched larvae 5 days after insecticide delivery, Replicate 3: 12
[3]; [6]
  Hatching rate (%): 20.63%
  Number of hatched larvae 5 days after insecticide delivery: 13
[3]; [7]
  Hatching rate (%): 16.22%
  Number of hatched larvae 5 days after insecticide delivery: 12
[4]; [6]
  Hatching rate (%): 14.10%
  Number of hatched larvae 5 days after insecticide delivery: 11
[4]; [7]
  Hatching rate (%): 14.63%
  Number of hatched larvae 5 days after insecticide delivery: 18
[4]; [8]
  Hatching rate (%): 16.04%
  Number of hatched larvae 5 days after insecticide delivery: 17
[5]
  inhibitory rate against Magnaporthe grisea (in words): strong inhibitory rate
  Average antifungal rate (%): 81.44%
  Antifungal rate of Magnaporthe grisea (%), Replicate 1: 84.82%
  Antifungal rate of Magnaporthe grisea (%), Replicate 2: 83.06%
  Antifungal rate of Magnaporthe grisea (%), Replicate 3: 76.44%

## CC[C@H](COc1ccc(Cl)cc1Cl)OS(=O)OCCF (stereo partly drawn) [19-(R,S)]
[1]
  inhibitory activity on the hatching of eggs of Harmonia axyridis (in words): strong inhibitory activities
  Number of hatched larvae 4 days after insecticide delivery, Replicate 1: 0
  Number of hatched larvae 4 days after insecticide delivery, Replicate 2: 0
  Number of hatched larvae 4 days after insecticide delivery, Replicate 3: 0
  Hatching rate (%), Replicate 1: 0.00%
  Hatching rate (%), Replicate 2: 0.00%
  Hatching rate (%), Replicate 3: 0.00%
[2]
  inhibitory activity on the hatching of eggs of Aleyrodidae (in words): strong inhibitory activities
  Hatching rate (%), Replicate 1: 0.00%
  Hatching rate (%), Replicate 2: 0.00%
  Hatching rate (%), Replicate 3: 0.00%
  Number of hatched larvae 5 days after insecticide delivery, Replicate 1: 0
  Number of hatched larvae 5 days after insecticide delivery, Replicate 2: 0
  Number of hatched larvae 5 days after insecticide delivery, Replicate 3: 0
[3]
  inhibitory activity on the hatching of eggs of Tetranychus urticae (in words): strong inhibitory activities
[3]; Replicate 1
  Hatching rate (%): 0.00%
  Number of hatched larvae 5 days after insecticide delivery: 0
[3]; Replicate 2
  Hatching rate (%): 0.00%
  Number of hatched larvae 5 days after insecticide delivery: 0
[4]
  inhibitory activity on the hatching of eggs of Thrips (in words): strong inhibitory activities
[4]; Replicate 1
  Hatching rate (%): 0.00%
  Number of hatched larvae 5 days after insecticide delivery: 0
[4]; Replicate 2
  Hatching rate (%): 0.00%
  Number of hatched larvae 5 days after insecticide delivery: 0
[4]; Replicate 3
  Hatching rate (%): 0.00%
  Number of hatched larvae 5 days after insecticide delivery: 0
[5]
  inhibitory rate against Magnaporthe grisea (in words): strong inhibitory rate
  Average antifungal rate (%): 100.04%
  Antifungal rate of Magnaporthe grisea (%), Replicate 1: 99.73%
  Antifungal rate of Magnaporthe grisea (%), Replicate 2: 100.15%
  Antifungal rate of Magnaporthe grisea (%), Replicate 3: 100.24%
